Columns and labels:
human Gal-3 (hGal-3) = human Gal-3 (hGal-3) (Homo sapiens (Human), UniProt P17931); test: Competitive binding assay: binding of biotinylated hGal-3 to microplate-adsorbed asialofetuin (ASF); settings: Activity on hGal-3; mean values of several measurements
How it was run: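 Biotin-hGal-3/hGal-1 300-1000 ng/mL + cpd (DMSO dilutions) on ASF-coated plate, 3 h 4° C; wash; SA-HRP 80 ng/mL 1 h 4° C; wash; ABTS. IC50 = mean of several runs. hGal-1 preferably Cys→Ser (all six) mutant.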

human Gal-1 (hGal-1) = test: Competitive binding assay: binding of biotinylated hGal-1 to microplate-adsorbed asialofetuin (ASF); settings: Activities on hGal-1; mean values of several measurements
Chain of human Gal-1 (hGal-1) (P09382 2-135 limits assumed): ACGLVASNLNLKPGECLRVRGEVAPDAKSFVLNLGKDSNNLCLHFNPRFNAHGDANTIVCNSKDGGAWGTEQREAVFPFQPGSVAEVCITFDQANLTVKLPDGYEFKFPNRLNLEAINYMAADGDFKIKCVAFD
How it was run: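 Compounds diluted in DMSO competed with biotinylated hGal-3 or hGal-1 (300-1000 ng/mL) for binding to plate-adsorbed asialofetuin for 3 h at 4° C. Bound galectin was detected with streptavidin-peroxidase (80 ng/mL, 1 h, 4° C) and ABTS substrate; IC50 reported as mean of several measurements.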

Chain of human Gal-3 (hGal-3) (P17931 whole entry): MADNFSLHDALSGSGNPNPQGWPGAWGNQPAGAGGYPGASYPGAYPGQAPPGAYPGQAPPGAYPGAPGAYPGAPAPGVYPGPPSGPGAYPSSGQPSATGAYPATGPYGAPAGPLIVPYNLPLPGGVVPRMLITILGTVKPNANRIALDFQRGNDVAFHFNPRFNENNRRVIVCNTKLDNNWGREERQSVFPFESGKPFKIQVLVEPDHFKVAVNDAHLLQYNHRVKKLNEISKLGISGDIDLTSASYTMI

Structure (SMILES) | IC50 (human Gal-3 (hGal-3)) [nM] | IC50 (human Gal-1 (hGal-1)) [nM]
CO[C@@H]1[C@@H](n2cc(-c3cc(F)c(F)c(F)c3)nn2)[C@@H](O)[C@@H](CO)O[C@@H]1CC1=NO[C@H](C2CCCCC2)C1 [Ex 1.129] | 270 | 14700
CO[C@@H]1[C@@H](n2cc(-c3ccc(C#N)c(F)c3F)nn2)[C@@H](O)[C@@H](CO)O[C@@H]1Cc1cc(C(C)(C)C)no1 [Ex 1.338] | 150 | 1980
CC(C)(C)OC(=O)N1CCC(C2=NOC(C[C@H]3O[C@H](CO)[C@H](O)[C@H](n4cc(-c5ccc(F)cn5)nn4)[C@H]3O)C2)CC1 (stereo partly drawn) [Ex 1.104] | 1840 | 450
CC(C)(C)c1cc(C[C@H]2O[C@H](CO)[C@H](O)[C@H](n3cc(-c4cc(F)c(F)c(F)c4)nn3)[C@H]2OCC(=O)N2CC[C@H](O)C2)no1 [Example 2.42, 2-(((2R,3R,4S,5R,6R)-2-((5-(tert-butyl)isoxazol-3-yl)methyl)-5-hydroxy-6-(hydroxymethyl)-4-(4-(3,4,5-trifluorophenyl)-1H-1,2,3-triazol-1-yl)tetrahydro-2H-pyran-3-yl)oxy)-1-((S)-3-hydroxypyrrolidin-1-yl)ethan-1-one] | 180 | 3270
CO[C@@H]1[C@@H](n2cc(-c3ccc(C)c(F)c3F)nn2)[C@@H](O)[C@@H](CO)O[C@@H]1Cc1cc(C2(C)COC2)no1 [Ex 1.256] | 55 | 1560
CO[C@@H]1[C@@H](n2cc(-c3ccc(C)c(F)c3F)nn2)[C@@H](O)[C@@H](CO)O[C@@H]1Cc1cc(C2(O)CCC2)on1 [Ex 1.241] | 79 | 2580
CO[C@@H]1[C@@H](n2cc(-c3ccc(Br)c(F)c3F)nn2)[C@@H](O)[C@@H](CO)O[C@@H]1Cc1cc(C2CCOCC2)on1 [Ex 1.182] | 82 | 4730
CCC(=O)O[C@@H]1[C@@H](n2cc(-c3cc(F)c(F)c(F)c3)nn2)[C@@H](O)[C@@H](CO)O[C@@H]1Cc1cc(C2CCNCC2)on1 [Example 2.18, (2R,3R,4S,5R,6R)-5-hydroxy-6-(hydroxymethyl)-2-((5-(piperidin-4-yl)isoxazol-3-yl)methyl)-4-(4-(3,4,5-trifluorophenyl)-1H-1,2,3-triazol-1-yl)tetrahydro-2H-pyran-3-yl propionate] | 220 | 6300
CO[C@@H]1[C@@H](n2cc(-c3ccc(Cl)c(F)c3F)nn2)[C@@H](O)[C@@H](CO)O[C@@H]1Cc1cc(C2(O)CCC2)no1 [Example 2.59, (2R,3R,4S,5R,6R)-4-(4-(4-chloro-2,3-difluorophenyl)-1H-1,2,3-triazol-1-yl)-6-((3-(1-hydroxycyclobutyl)isoxazol-5-yl)methyl)-2-(hydroxymethyl)-5-methoxytetrahydro-2H-pyran-3-ol] | 84 | 2300
CO[C@@H]1[C@@H](n2cc(-c3cc(F)c(F)c(F)c3)nn2)[C@@H](O)[C@@H](CO)O[C@@H]1Cc1cc(C2CCC(F)(F)CC2)on1 [Ex 1.79] | 270 | 4240
CO[C@@H]1[C@@H](n2cc(-c3ccc(Cl)c(F)c3F)nn2)[C@@H](O)[C@@H](CO)O[C@@H]1Cc1cc(C2(C)CCOCC2)no1 [Ex 1.285] | 51 | 1100
CO[C@@H]1[C@@H](n2cc(-c3cc(F)c(F)c(F)c3)nn2)[C@@H](O)[C@@H](CO)O[C@@H]1Cc1cc(C2(O)CCCN(C(C)=O)CC2)on1 (mixture of isomers) [Example 2.10] | 450 | 4470
CO[C@@H]1[C@@H](n2cc(-c3cc(F)c(F)c(F)c3)nn2)[C@@H](O)[C@@H](CO)O[C@@H]1CC1=NOC(C2CCN(C(=O)OC(C)(C)C)CC2)C1 (stereo partly drawn) [Ex 1.67] | 430 | 3080
CO[C@@H]1[C@@H](n2cc(-c3cc(F)c(F)c(F)c3)nn2)[C@@H](O)[C@@H](CO)O[C@@H]1Cc1cc(C2(O)CCC(F)(F)CC2)on1 [Ex 1.83] | 400 | 8210
CO[C@@H]1[C@@H](n2cc(-c3ccc(Cl)c(F)c3F)nn2)[C@@H](O)[C@@H](CO)O[C@@H]1Cc1cc(C2(O)CCC2)on1 [Ex 1.246] | 73 | 1720
CO[C@@H]1[C@@H](n2cc(-c3ccc(F)c(F)c3F)nn2)[C@@H](O)[C@@H](CO)O[C@@H]1Cc1cc(C2CCOCC2)on1 [Ex 1.184] | 130 | 1180
CO[C@@H]1[C@@H](n2cc(-c3cc(F)cc(Cl)c3)nn2)[C@@H](O)[C@@H](CO)O[C@@H]1Cc1cc(C(C)(C)C)on1 [Ex 1.196] | 400 | 2430

The next lines start with the values.

IC50 (human Gal-3 (hGal-3)) [nM] | IC50 (human Gal-1 (hGal-1)) [nM] | Structure (SMILES)
52 | 160 | CO[C@@H]1[C@@H](n2cc(-c3cc(F)c(F)c(F)c3)nn2)[C@@H](O)[C@@H](CO)O[C@@H]1Cc1cn(C2CCN(C(C)=O)CC2)nn1 [Example 4.06, 1-(4-(4-(((2R,3R,4S,5R,6R)-5-hydroxy-6-(hydroxymethyl)-3-methoxy-4-(4-(3,4,5-trifluorophenyl)-1H-1,2,3-triazol-1-yl)tetrahydro-2H-pyran-2-yl)methyl)-1H-1,2,3-triazol-1-yl)piperidin-1-yl)ethan-1-one]
110 | 1970 | CO[C@@H]1[C@@H](n2cc(-c3cc(F)c(F)c(F)c3)nn2)[C@@H](O)[C@@H](CO)O[C@@H]1Cc1cc(C2CCN(C(=O)OC(C)(C)C)CC2)sn1 [Example 6.02, tert-butyl 4-(3-(((2R,3R,4S,5R,6R)-5-hydroxy-6-(hydroxymethyl)-3-methoxy-4-(4-(3,4,5-trifluorophenyl)-1H-1,2,3-triazol-1-yl)tetrahydro-2H-pyran-2-yl)methyl)isothiazol-5-yl)piperidine-1-carboxylate]
120 | 1570 | CN=S(=O)(C(C)C)N1CCC(c2cn(C[C@H]3O[C@H](CO)[C@H](O)[C@H](n4cc(-c5cc(F)c(F)c(F)c5)nn4)[C@H]3OC)nn2)CC1 (stereo partly drawn) [Example 4.25, (2R,3R,4S,5R,6R)-2-(hydroxymethyl)-5-methoxy-6-((4-(1-(N-methylpropan-2-ylsulfonimidoyl)piperidin-4-yl)-1H-1,2,3-triazol-1-yl)methyl)-4-(4-(3,4,5-trifluorophenyl)-1H-1,2,3-triazol-1-yl)tetrahydro-2H-pyran-3-ol]
260 | 1500 | CO[C@@H]1[C@@H](n2cc(-c3cc(F)c(F)c(F)c3)nn2)[C@@H](O)[C@@H](CO)O[C@@H]1CC1CN(C2CCN(C(=O)N(C)C)CC2)C(=O)O1 (mixture of isomers) [Example 5.11, 4-((RS)-5-(((2R,3R,4S,5R,6R)-5-hydroxy-6-(hydroxymethyl)-3-methoxy-4-(4-(3,4,5-trifluorophenyl)-1H-1,2,3-triazol-1-yl)tetrahydro-2H-pyran-2-yl)methyl)-2-oxooxazolidin-3-yl)-N,N-dimethylpiperidine-1-carboxamide]
740 | 12700 | COC1CCC(N2C[C@@H](C[C@H]3O[C@H](CO)[C@H](O)[C@H](n4cc(-c5cc(F)c(F)c(F)c5)nn4)[C@H]3OC)OC2=O)CC1 (mixture of isomers) [Example 5.25, (RS)-5-(((2R,3R,4S,5R,6R)-5-hydroxy-6-(hydroxymethyl)-3-methoxy-4-(4-(3,4,5-trifluorophenyl)-1H-1,2,3-triazol-1-yl)tetrahydro-2H-pyran-2-yl)methyl)-3-((1r,4R)-4-methoxycyclohexyl)oxazolidin-2-one]
15 | 170 | CO[C@@H]1[C@@H](n2cc(-c3cc(F)cc(F)c3)nn2)[C@@H](O)[C@@H](CO)O[C@@H]1Cc1cn(C2CCN(C(=O)OCc3ccccc3)CC2)nn1 [Example 4.37, benzyl 4-(4-(((2R,3R,4S,5R,6R)-4-(4-(3,5-difluorophenyl)-1H-1,2,3-triazol-1-yl)-5-hydroxy-6-(hydroxymethyl)-3-methoxytetrahydro-2H-pyran-2-yl)methyl)-1H-1,2,3-triazol-1-yl)piperidine-1-carboxylate]
300 | 4430 | CO[C@@H]1[C@@H](n2cc(-c3cc(F)c(F)c(F)c3)nn2)[C@@H](O)[C@@H](CO)O[C@@H]1Cn1cc(C2(O)CCC2)nn1 [Example 4.43, (2R,3R,4S,5R,6R)-6-((4-(1-hydroxycyclobutyl)-1H-1,2,3-triazol-1-yl)methyl)-2-(hydroxymethyl)-5-methoxy-4-(4-(3,4,5-trifluorophenyl)-1H-1,2,3-triazol-1-yl)tetrahydro-2H-pyran-3-ol]
700 | 3040 | CO[C@@H]1[C@@H](n2cc(-c3cc(F)c(F)c(F)c3)nn2)[C@@H](O)[C@@H](CO)O[C@H]1Cc1cn(C2CCN(C(C)=O)CC2)nn1 [Example 4.12, 1-(4-(4-(((2S,3R,4S,5R,6R)-5-hydroxy-6-(hydroxymethyl)-3-methoxy-4-(4-(3,4,5-trifluorophenyl)-1H-1,2,3-triazol-1-yl)tetrahydro-2H-pyran-2-yl)methyl)-1H-1,2,3-triazol-1-yl)piperidin-1-yl)ethan-1-one]
170 | 2470 | CC(=O)O[C@@H]1[C@@H](n2cc(-c3cc(F)c(F)c(F)c3)nn2)[C@@H](O)[C@@H](CO)O[C@@H]1CC1=NO[C@H](C2CCN(C(C)=O)CC2)C1 [Example 3.25, (2R,3R,4S,5R,6R)-2-(((S)-5-(1-acetylpiperidin-4-yl)-4,5-dihydroisoxazol-3-yl)methyl)-5-hydroxy-6-(hydroxymethyl)-4-(4-(3,4,5-trifluorophenyl)-1H-1,2,3-triazol-1-yl)tetrahydro-2H-pyran-3-yl acetate]
310 | 1210 | CO[C@@H]1[C@@H](n2cc(-c3cc(F)c(F)c(F)c3)nn2)[C@@H](O)[C@@H](CO)O[C@@H]1CC1=NOC(C2CCN(C(C)=O)CC2)C1 (mixture of isomers) [Example 3.40, 1-(4-((RS)-3-(((2R,3R,4S,5R,6R)-5-hydroxy-6-(hydroxymethyl)-3-methoxy-4-(4-(3,4,5-trifluorophenyl)-1H-1,2,3-triazol-1-yl)tetrahydro-2H-pyran-2-yl)methyl)-4,5-dihydroisoxazol-5-yl)piperidin-1-yl)ethan-1-one]

Reference: patent publication US12319672B2, “Alpha-D-galactopyranoside derivatives” (Idorsia Pharmaceuticals Ltd, priority 2019, dated 2025)
